One molecule from patent US20220040123A1, “ANTI-HELICOBACTER FOOD COMPOSITION COMPRISING BETA-CARYOPHYLLENE” (priority 2018, published 2022) can be followed below.

Each structure is given as a SMILES string.

The test deals with cagA, vacA and secA genes. Kind of test: RT-PCR of cagA, vacA and secA gene expression. Format: cell-based, Helicobacter pylori. To be noted: 31.25, 62.5, 125, 250 and 500 μg/ml. The protocol: In addition, in order to examine changes in expression of cagA, vacA and secA genes, H. pylori was treated with beta-caryophyllene at concentrations of 31.25, 62.5, 125, 250 and 500 μg/ml, and then RT-PCR was performed.

As for `C=C1CC/C=C(\C)CC[C@@H]2[C@@H]1CC2(C)C` [beta-caryophyllene], the “transcription of other genes, including UDP-galactose 4-epimerase (control)” value was “did not affect”; the “transcription of toxin protein gene cagA” value is listed as “tended to be inhibited”; the “transcription of toxin protein gene vacA” value was “tended to be inhibited”.
